Test results: US8399493B2, “Pyridinone derivatives and their use as positive allosteric modulators of mGluR2-receptors” (Janssen Pharmaceuticals, Inc., priority 2004, dated 2013)

Assays:
Male C57BL6/j mice [1] = assay: Amphetamine-induced locomotor activity in mice (amphetamine model of schizophrenia); format: in vivo; conditions: 200 mg/kg i.p., amphetamine 3.0 mg/kg s.c., distance traveled over 60 minutes, FIG. 3
Excerpt: Amphetamine-induced increases in locomotor ambulation are well known and are widely used as a model of the positive symptoms of schizophrenia. This model is based on evidence that amphetamine increases motor behaviors and can induce a psychotic state in humans (Yui et al. (2000) Ann NY Acad Sci 914:1-12). Further, it is well known that amphetamine-induced increases in locomotor activity are blocked by antipsychotics drugs that are effective in the treatment of schizophrenia (Arnt (1995) Eur J Pharmacol 283:55-62). […]
(§1) The effects of compounds on PCP- or amphetamine-induced locomotor activation in mice were tested. […] Locomotor activity (ambulations) was monitored by a videotracking system (VideoTrack, Viewpoint, Champagne au Mont d'Or, France) that recorded the ambulatory movements of mice. […] On test days, test compounds (200 mg/kg i.p. (intraperitoneal)) or vehicle were administered immediately before the PCP (5 mg/kg s.c. (sub-cutaneous), amphetamine (3.0 mg/kg s.c.) or saline injection. Mice were placed into the locomotor boxes immediately after the PCP, amphetamine or saline vehicle injection and their locomotor activity, defined as the distance traveled in centimeters (cm), was measured for 60 minutes. […]
Statistical analyses were performed using GraphPad PRISM statistical software (GraphPad, San Diego, Calif., USA). Data were analyzed using unpaired t-tests. […]

Male C57BL6/j mice [2] = assay: PCP-induced locomotor activity in mice (phencyclidine model of schizophrenia); format: in vivo; conditions: 200 mg/kg i.p., PCP 5 mg/kg s.c., distance traveled over 60 minutes, FIG. 2
Excerpt: PCP-induced increases in locomotor ambulation are a widely accepted animal model of schizophrenia. This model is based on the evidence that phencyclidine induces a schizophrenia-like syndrome in humans including increased motor behaviors, disruption of cognition and impairment of working memory (Steinpreis R E (1996) Behav Br Res. 74:45-55; Abi-Saab et al. (1998) Pharmacopsychiatry, 31:104-109). Further, it has also been shown that antipsychotic drugs that are effective in the treatment of schizophrenia reduce the locomotor activating effect of PCP (Gleason & Shannon (1997) Psychopharmacology, 129:79-84). […]
as §1

native rat mGluR2 = biological target: T1, native rat mGluR2 (Rattus norvegicus, UniProt P31421); assay: [35S]GTPγS binding assay using cortical rat brain membranes; format: biochemical; conditions: FIG. 1
T1 construct: from tissue; host or cells: rat brain cortex membranes (Sprague-Dawley rats, Charles River Laboratories)
T1 sequence (P31421 19-872): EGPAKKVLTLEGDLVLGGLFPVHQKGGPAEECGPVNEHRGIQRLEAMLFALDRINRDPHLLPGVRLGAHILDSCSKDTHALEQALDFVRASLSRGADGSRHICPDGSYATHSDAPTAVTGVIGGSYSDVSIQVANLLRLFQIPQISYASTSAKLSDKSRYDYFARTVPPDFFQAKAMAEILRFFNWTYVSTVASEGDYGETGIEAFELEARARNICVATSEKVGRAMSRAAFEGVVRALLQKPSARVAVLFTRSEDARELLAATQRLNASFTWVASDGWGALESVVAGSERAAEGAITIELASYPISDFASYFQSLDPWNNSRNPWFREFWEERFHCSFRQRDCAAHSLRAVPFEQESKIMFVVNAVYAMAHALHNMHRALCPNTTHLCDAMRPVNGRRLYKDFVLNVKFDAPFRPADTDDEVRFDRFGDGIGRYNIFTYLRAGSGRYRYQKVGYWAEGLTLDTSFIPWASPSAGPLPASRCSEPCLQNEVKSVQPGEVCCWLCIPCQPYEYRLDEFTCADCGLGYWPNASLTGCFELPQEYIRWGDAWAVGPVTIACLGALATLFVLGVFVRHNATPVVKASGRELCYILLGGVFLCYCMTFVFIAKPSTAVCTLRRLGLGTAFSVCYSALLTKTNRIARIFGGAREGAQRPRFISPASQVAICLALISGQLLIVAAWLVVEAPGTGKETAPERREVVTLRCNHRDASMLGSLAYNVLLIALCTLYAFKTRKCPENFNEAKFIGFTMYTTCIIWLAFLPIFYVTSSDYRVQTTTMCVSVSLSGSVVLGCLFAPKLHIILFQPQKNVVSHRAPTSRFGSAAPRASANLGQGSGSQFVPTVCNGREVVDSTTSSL
Excerpt: The [^35S]GTPγS binding is a functional membrane-based assay used to study G-protein coupled receptor (GPCR) function. This method is using a binding assay to assess the initial step in receptor-mediated G protein activation in membranes prepared from cells expressing recombinant GPCR or using membranes from discrete area of the rat brain. In brief, the assay is measuring the activation of G proteins by catalyzing the exchange of guanosine 5′-diphosphate (GDP) by guanosine 5′-triphosphate (GTP) at the α subunit. The GTP-bounded G proteins dissociate into two subunits, Gα-GTP and Gβγ, which in turn regulate intracellular enzymes and ion channels. GTP is rapidly hydrolysed by the Gα-subunit (GTPases) and the G protein is deactivated and ready for new GTP exchange cycle (Harper (1998) Curr Protoc Pharmacol 2.6.1-10, John Wiley & Sons, Inc.). [^35S]GTPγS, a non-hydrolyzed analogue of GTP, is used for this purpose.
This method is widely used to study receptor activation of G protein in membranes prepared from rat brain tissue, including mGluR2 receptors (Schaffhauser et al 2003, Pinkerton et al, 2004). mGluR2 receptors are expressed in the rat brain cortex (Mutel et al (1998) J. Neurochem. 71:2558-64; Schaffhauser et al (1998) Mol. Pharmacol. 53:228-33) and are coupled to Gαi-protein, a preferential coupling for this method.
[^35S]GTPγS binding assay using cortical rat brain membranes preparation was used and adapted from Schaffhauser et al ((2003) Mol. Pharmacol. 4:798-810) for the detection of the positive allosteric modulator properties of the compounds of this invention on native rat mGluR2. In order to eliminate the possible interference with group III Gαi-protein coupled mGluRs (mGluR4, mGluR7, mGluR8; mGluR6 is not expressed in the cortex (Laurie et al (1997) Neuropharmacol. 36:145-52)), the potentiation of the response to a selective mGluR2 agonist, such as DCG-IV (Cartmell et al. (1998) Br. J. Pharmacol. 123(3):497-504) or LY379268 (Monn et al. (1999) J. Med. Chem 42:1027-40), by compounds described in the present invention was performed.
Cortices were dissected out from brains of 200-300 g Sprague-Dawley rats (Charles River Laboratories, L'Arbresle, France). Tissues were homogenized in 6 volumes (vol/wt) of 10% sucrose at 4° C. using a glass-teflon homogenizer. The homogenate was centrifuged at 1250 g for 10 min, and the supernatant was centrifuged at 40,000 g for 20 min (4° C.). The pellet was resuspended in 25 ml water using a Polytron disrupter (Kinematica AG, Luzern, Switzerland) and centrifuged for 10 min at 3000 g. (4° C.). The supernatant was centrifuged at 40,000 g for 20 min (4° C.). The supernatant was discarded and the pellet washed twice by resuspension in 10 volumes 5 mM HEPES-KOH, pH 7.4. The homogenate was frozen and thawed twice and centrifuged at 40,000 g for 20 min. The final pellet was resuspended in 5 mM HEPES-KOH, pH 7.4 and stored at −80° C. before its use. Protein concentration was determined by the Bradford method (Bio-Rad protein assay, Reinach, Switzerland) with bovine serum albumin as standard.
Measurement of mGluR2 positive allosteric modulators properties in rat cortical membranes was performed as follows: rat cortical membrane (1.5 μg) were incubated in 96-well microplates for 15 min at 30° C. in assay buffer (50 mM HEPES pH 7.4, 100 mM NaCl, 5 mM MgCl2, 10 μM GDP, 10 μg/ml saponin, EGTA 0.2 mM) with increasing concentrations of positive allosteric modulator (from 1 nM to 10 μM) and a minimal concentration of DCG-IV or LY379268, a selective mGluR2 agonist, that has been determined in previous experiments and that corresponds to the EC20, a concentration that gives 20% of the maximal response of the agonist, and is in accordance to published data (Pin et al. (1999) Eur. J. Pharmacol. 375:277-294). […]

melting point: 88 °C | ability to increase the [GTPγ35S] binding induced by DCG-IV (native rat mGluR2; 10 μM compound with 50 nM DCG-IV, compared to agonist alone): significantly potentiated
SMILES: COc1ccc(-c2ccc(=O)n(Cc3ccc(Cl)cc3F)c2)cc1 [4-16]
effect on the increase in locomotor activity induced by amphetamine (Male C57BL6/j mice [1]): significantly attenuated | effect on the increase in locomotor activity induced by PCP (Male C57BL6/j mice [2]): significantly attenuated | agonistic activity in the absence of DCG-IV (native rat mGluR2; 10 μM compound without 50 nM DCG-IV, compared to buffer value): no statistically significant agonistic activity
